Reference: article PMC12778052 (Science Advances, 2026)
Starred links: 1 amine or outer side, 2 acyl side, 3 side chain; linkers in the order of their positions; H or OH if unused. Positions of bridges follow the written chain, without caps; N, C: chain ends. Non-standard residues stand in square brackets, D forms with d. Primed or numbered codes have the meaning given here. *: point of attachment. TATA = O=C(CC[*:1])N1CN(C(=O)CC[*:2])CN(C(=O)CC[*:3])C1; NOTA = O=C(O)CN1CCN(CC(=O)O)CCN(CC(=O)*)CC1; Hyp = O=C(O)[C@@H]1C[C@@H](O)CN1; hArg = N=C(N)NCCCC[C@H](N)C(=O)O; PEG12′ = not defined here; Nal = naphthylalanine

T1: human Nectin-4 (Homo sapiens, UniProt Q96NY8)
T1 construct: purchased R&D Systems 2659-N4-050
T1 sequence (Q96NY8 32-349 limits assumed): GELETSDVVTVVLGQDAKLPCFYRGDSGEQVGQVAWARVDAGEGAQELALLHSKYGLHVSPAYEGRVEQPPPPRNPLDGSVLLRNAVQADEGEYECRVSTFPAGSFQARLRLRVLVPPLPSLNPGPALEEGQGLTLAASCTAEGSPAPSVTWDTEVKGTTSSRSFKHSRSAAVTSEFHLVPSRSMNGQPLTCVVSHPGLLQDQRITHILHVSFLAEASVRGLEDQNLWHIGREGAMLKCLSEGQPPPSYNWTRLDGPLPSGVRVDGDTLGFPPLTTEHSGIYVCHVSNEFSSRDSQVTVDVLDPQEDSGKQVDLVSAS

T2: mouse Nectin-4 (Mus musculus, UniProt Q8R007)
T2 construct: purchased R&D Systems 3116-N4-050
T2 sequence (Q8R007 31-347 limits assumed): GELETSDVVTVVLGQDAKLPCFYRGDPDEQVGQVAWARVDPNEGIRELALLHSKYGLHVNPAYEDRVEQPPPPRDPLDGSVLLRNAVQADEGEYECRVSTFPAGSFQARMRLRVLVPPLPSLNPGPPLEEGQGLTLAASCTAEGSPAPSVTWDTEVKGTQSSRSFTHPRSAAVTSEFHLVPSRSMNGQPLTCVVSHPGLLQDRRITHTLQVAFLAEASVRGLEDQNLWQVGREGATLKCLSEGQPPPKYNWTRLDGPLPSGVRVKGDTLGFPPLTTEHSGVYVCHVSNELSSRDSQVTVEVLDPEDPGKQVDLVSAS

T3: His-tagged mouse Nectin-4 (R&D Systems, catalog no. 3116-N4-050) (mouse, UniProt Q8R007 31-347)
T3 chain: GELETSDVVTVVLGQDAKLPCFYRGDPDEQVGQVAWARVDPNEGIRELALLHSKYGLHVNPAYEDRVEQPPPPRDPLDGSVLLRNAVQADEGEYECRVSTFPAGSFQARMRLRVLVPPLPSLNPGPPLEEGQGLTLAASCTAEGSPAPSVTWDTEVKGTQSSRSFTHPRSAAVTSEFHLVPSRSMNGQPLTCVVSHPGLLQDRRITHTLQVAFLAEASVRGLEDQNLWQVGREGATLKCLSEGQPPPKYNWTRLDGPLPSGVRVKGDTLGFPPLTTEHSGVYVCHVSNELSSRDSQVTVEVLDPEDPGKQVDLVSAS

T4: His-tagged human Nectin-4 (R&D Systems, catalog no. 2659-N4-050) (human, UniProt Q96NY8 32-349)
T4 chain: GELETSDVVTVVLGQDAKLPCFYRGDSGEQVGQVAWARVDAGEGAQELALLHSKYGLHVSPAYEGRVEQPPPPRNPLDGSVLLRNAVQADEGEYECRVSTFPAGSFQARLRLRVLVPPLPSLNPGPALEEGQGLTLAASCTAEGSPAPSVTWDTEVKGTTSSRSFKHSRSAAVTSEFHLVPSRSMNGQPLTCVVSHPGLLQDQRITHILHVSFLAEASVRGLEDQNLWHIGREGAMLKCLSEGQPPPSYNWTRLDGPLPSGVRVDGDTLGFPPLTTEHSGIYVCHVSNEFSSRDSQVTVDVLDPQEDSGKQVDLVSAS


Assays:
human Nectin-4 = biological target: T1, human Nectin-4; test: SPR affinity for recombinant human Nectin-4; format: binding; details: Biacore T200, CM5 chip, 25°C, His-tagged recombinant protein captured, 1:1 kinetics fit, n = 3
Description: (§1) The affinity of AJ647 for human and mouse Nectin-4 recombinant proteins was evaluated by SPR. The experiments were conducted using a Biacore T200 instrument with a CM5 chip at 25°C. The ligands used were His-tagged human Nectin-4 (R&D Systems, catalog no. 2659-N4-050, 44 kDa, 0.2 mg/ml stock concentration) and mouse Nectin-4 proteins (R&D Systems, catalog no. 3116-N4-050, 45 kDa, 0.2 mg/ml stock concentration), which were immobilized onto the CM5 chip. AJ647 (3057.5 Da, 10 mM stock concentration) was used as the analyte, which flowed over the ligand-immobilized surface. FC2 and FC4 was used as the experimental flow cell, while FC1 and FC3 served as the reference. An anti-His antibody (1 mg/ml stock concentration) was immobilized on all flow cells using standard amine coupling chemistry. […] Human Nectin-4 was captured onto FC2 at a level of ~600 RU, with a 1:20 dilution and 10 μg/ml diluted concentration in PBS-P. Mouse Nectin-4 was captured onto FC4 at a level of 600 RU, with a 1:20 dilution and 10 μg/ml diluted concentration in PBS-P. The theoretical maximum response (Rmax ) values were calculated on the basis of the captured response values (table S1), assuming a 1:1 interaction mechanism. […] All association and dissociation kinetics were evaluated by 1:1 kinetics model fitting.

mouse Nectin-4 = biological target: T2, mouse Nectin-4; test: SPR affinity for recombinant mouse Nectin-4; format: binding; details: Biacore T200, CM5 chip, 25°C, His-tagged recombinant protein captured, 1:1 kinetics fit, n = 3
Description: as §1

HT1376 xenografts = test: In vivo blocking of [^68Ga]AJ647 uptake by nonradioactive AJ647, PET; design: species or system NSG mice; details: nonradioactive AJ647 2 mg/kg pre-injected; PET-MR 60 min
Description: Mice with tumor volumes of ~100 to 150 mm^3 were injected with ~200 μCi [7.4 megabecquerels (MBq)] of [^68Ga]AJ647 in […] of 5% ethanol in saline intravenously and anesthetized under 2.5% isoflurane. PET-computed tomography (CT) images were acquired at 60 min after radiotracer injection at 5 min per bed in an ARGUS small-animal PET/CT scanner (Sedecal, Madrid, Spain) as described previously (n = 3, unless otherwise noted). PET-MR images were acquired on a simultaneous 7T Bruker PET-MR scanner. Dynamic imaging was conducted to evaluate the PK of [^68Ga]AJ647. [^68Ga]AJ647 was injected (with the help of a catheter) after mice were anesthetized under 2.5% isoflurane on the equipment bed. All PET data were reconstructed using the two-dimensional (2D) ordered subset expectation maximization algorithm and corrected for radioactive decay and dead times. The SUV values were calculated by finding %IA on the basis of a calibration factor obtained from a known radioactive quantity and then normalizing by mice weight. Amide software was used to derive SUV values by drawing the region of interest to closely fit tumors. […] For the change in accessible Nectin-4 following EV treatment, ΔSUV was calculated by subtracting baseline (pre-treatment) uptake from posttherapy uptake of [^68Ga]AJ647. TE was quantified by normalizing this change by initial SUV in the same subject controls. […]

[1] = system: bladder cancer cell lines; test: In vitro blocking of [^68Ga]AJ647 uptake by nonradioactive AJ647; format: cell-based; details: 2 μM nonradioactive AJ647 (0.2 nmol, blocking dose)
Description: In vitro binding of [^68Ga]AJ647 to T24, SCaBER, RT112, UC9, UC14, and HT1376 cells was determined by incubating 1 × 10^6 cells with ~1 μCi of [^68Ga]AJ647 for 30 min at 4°C. After incubation, cells were washed three times with ice-cold PBS containing 0.1% Tween 20 and counted on an automated gamma counter. All cell radioactivity uptake studies were performed in quadruplicate for each cell line and repeated three times.

[2] = biological target: T3, His-tagged mouse Nectin-4 (R&D Systems, …); test: SPR
[3] = biological target: T4, His-tagged human Nectin-4 (R&D Systems, …); test: SPR

| koff [2] [s⁻¹] | koff [3] [s⁻¹] | Molecule | Kd (human Nectin-4) [nM] | Kd (mouse Nectin-4) [nM] | effect on [^68Ga]AJ647 uptake in HT1376 xenografts (HT1376 xenografts) | effect of co-incubation on radiotracer uptake [1] |
| --- | --- | --- | --- | --- | --- | --- |
|  |  | CSCC[C@@H]1NC(=O)[C@@H]2CSCCC(=O)N3CN(CN(C3)C(=O)CCSC[C@H](NC(=O)CCOCCOCCOCCOCCOCCOCCOCCOCCOCCOCCOCCOCCNC(=O)CN3CCN(CC(=O)O)CCN(CC(=O)O)CC3)C(=O)N3CCC[C@H]3C(=O)N[C@@H](Cc3cccc4ccccc34)C(=O)N[C@@H](CC(=O)O)C(=O)N2)C(=O)CCSC[C@@H](C(N)=O)NC(=O)[C@H](Cc2c[nH]c3ccccc23)NC(=O)[C@@H]2C[C@@H](O)CN2C(=O)[C@@H]2CCCN2C(=O)[C@H]([C@@H](C)O)NC(=O)[C@H](CO)NC(=O)[C@H](Cc2c[nH]c3ccccc23)NC(=O)[C@@H](CC(=O)O)NC(=O)[C@H](CCCCNC(=N)N)NC1=O [AJ647] | 15 ± 10.1 | 14.1 ± 3.4 | reduction in tracer uptake | significantly reduced radiotracer uptake |
| 0.0101 | 0.0106 | {NOTA-PEG12′}-CP[Nal]DCM[hArg]DWSTP[Hyp]WC-NH2 (linker 1-5-15 via TATA; not fully specified (residue 8)) [AJ647 (NOTA-PEG12 conjugate of the bicyclic peptide AJ632)] |  |  |  |  |
